Measured values published in PubChem BioAssay AID1963829 (Molecular Pharmacology Branch, DTP, NCI, 2024).

Tested on: 935938-334-R-J1-PDC complex spheroid viability
Assay: Anticancer human tumor 935938-334-R-J1-PDC patient-derived small intestine adenocarcinoma cell line growth inhibition [POLQ]
Conditions: for IC50: curve of first compound; for viability, T/C: stronger effect = lower value
Procedure, shortened: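 PDC + HUVEC + MSC complex spheroids; POLQ inhibitors ± partner drugs; top conc. at/near clinical Cmax, else 10 microM (SN-38 1 microM), half-log dilutions; 37 degrees C, 5% CO2.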

[1] = second compound 0.0316 µM, first compound 0.0316 µM
[2] = second compound 0.0316 µM, first compound 0.1 µM
[3] = second compound 0.0316 µM, first compound 0.316 µM
[4] = second compound 0.0316 µM, first compound 1 µM
[5] = second compound 0.0316 µM, first compound 3.16 µM
[6] = second compound 0.0316 µM, first compound 10 µM
[7] = second compound 0.1 µM, first compound 0.0316 µM
[8] = second compound 0.1 µM, first compound 0.1 µM
[9] = second compound 0.1 µM, first compound 0.316 µM
[10] = second compound 0.1 µM, first compound 1 µM
[11] = second compound 0.1 µM, first compound 3.16 µM
[12] = second compound 0.1 µM, first compound 10 µM
[13] = second compound 0.316 µM, first compound 0.0316 µM
[14] = second compound 0.316 µM, first compound 0.1 µM
[15] = second compound 0.316 µM, first compound 0.316 µM
[16] = second compound 0.316 µM, first compound 1 µM
[17] = second compound 0.316 µM, first compound 3.16 µM
[18] = second compound 0.316 µM, first compound 10 µM
[19] = second compound 1 µM, first compound 0.0316 µM
[20] = second compound 1 µM, first compound 0.1 µM
[21] = second compound 1 µM, first compound 0.316 µM
[22] = second compound 1 µM, first compound 1 µM
[23] = second compound 1 µM, first compound 3.16 µM
[24] = second compound 1 µM, first compound 10 µM
[25] = second compound 3.16 µM, first compound 0.0316 µM
[26] = second compound 3.16 µM, first compound 0.1 µM
[27] = second compound 3.16 µM, first compound 0.316 µM
[28] = second compound 3.16 µM, first compound 1 µM
[29] = second compound 3.16 µM, first compound 3.16 µM
[30] = second compound 3.16 µM, first compound 10 µM
[31] = second compound 10 µM, first compound 0.0316 µM
[32] = second compound 10 µM, first compound 0.1 µM
[33] = second compound 10 µM, first compound 0.316 µM
[34] = second compound 10 µM, first compound 1 µM
[35] = second compound 10 µM, first compound 3.16 µM
[36] = second compound 10 µM, first compound 10 µM
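Also: spheroids exposed to drugs for seven days before viability read.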
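For viability, T/C in this document: 100% = DMSO vehicle control wells.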

SMILES: CCc1cc2c(N3CCc4c(cc(Cn5ccnc5)cc4-c4cn(C)nc4C(F)(F)F)C3=O)ccnc2c(OC)n1 + Nc1ccc(C#CCN(C(=O)Cc2ncc(C(F)(F)F)cc2C(F)(F)F)c2ccc(F)cc2)nn1
- IC50 (second compound 0.0316 µM): > 10 µM
- IC50 (second compound 0.1 µM): > 10 µM
- IC50 (second compound 0.316 µM): > 10 µM
- IC50 (second compound 1 µM): > 10 µM
- IC50 (second compound 3.16 µM): > 10 µM
- IC50 (second compound 10 µM): > 10 µM
- viability, T/C [1]: 79.9%
- viability, T/C [2]: 57.4%
- viability, T/C [3]: 52.4%
- viability, T/C [4]: 70.4%
- viability, T/C [5]: 59.1%
- viability, T/C [6]: 60.8%
- viability, T/C [7]: 88.2%
- viability, T/C [8]: 68%
- viability, T/C [9]: 64.5%
- viability, T/C [10]: 57.4%
- viability, T/C [11]: 70%
- viability, T/C [12]: 60.7%
- viability, T/C [13]: 88.8%
- viability, T/C [14]: 66%
- viability, T/C [15]: 67.9%
- viability, T/C [16]: 63.5%
- viability, T/C [17]: 63.5%
- viability, T/C [18]: 61.7%
- viability, T/C [19]: 91.2%
- viability, T/C [20]: 67.1%
- viability, T/C [21]: 82.7%
- viability, T/C [22]: 70.5%
- viability, T/C [23]: 59.5%
- viability, T/C [24]: 64.4%
- viability, T/C [25]: 90.6%
- viability, T/C [26]: 97.6%
- viability, T/C [27]: 70.3%
- viability, T/C [28]: 64.6%
- viability, T/C [29]: 72.5%
- viability, T/C [30]: 60.2%
- viability, T/C [31]: 80.7%
- viability, T/C [32]: 82.2%
- viability, T/C [33]: 85.5%
- viability, T/C [34]: 64.3%
- viability, T/C [35]: 56.7%
- viability, T/C [36]: 66.9%

SMILES: CC[C@@]1(O)C(=O)OCc2c1cc1n(c2=O)Cc2cc3c(CN(C)C)c(O)ccc3nc2-1 + Nc1ccc(C#CCN(C(=O)Cc2ncc(C(F)(F)F)cc2C(F)(F)F)c2ccc(F)cc2)nn1
- IC50 (second compound 0.0316 µM): > 0.1 µM
- IC50 (second compound 0.1 µM): > 0.1 µM
- IC50 (second compound 0.316 µM): > 0.1 µM
- IC50 (second compound 1 µM): > 0.1 µM
- IC50 (second compound 3.16 µM): > 0.1 µM
- IC50 (second compound 10 µM): > 0.1 µM
- viability, T/C (second compound 0.0316 µM, first compound 0.000316 µM): 73.9%
- viability, T/C (second compound 0.0316 µM, first compound 0.001 µM): 96.8%
- viability, T/C (second compound 0.0316 µM, first compound 0.00316 µM): 97.6%
- viability, T/C (second compound 0.0316 µM, first compound 0.01 µM): 91.9%
- viability, T/C [1]: 84.3%
- viability, T/C [2]: 60.2%
- viability, T/C (second compound 0.1 µM, first compound 0.000316 µM): 98.6%
- viability, T/C (second compound 0.1 µM, first compound 0.001 µM): 101%
- viability, T/C (second compound 0.1 µM, first compound 0.00316 µM): 113%
- viability, T/C (second compound 0.1 µM, first compound 0.01 µM): 98.1%
- viability, T/C [7]: 96.7%
- viability, T/C [8]: 63%
- viability, T/C (second compound 0.316 µM, first compound 0.000316 µM): 129%
- viability, T/C (second compound 0.316 µM, first compound 0.001 µM): 130%
- viability, T/C (second compound 0.316 µM, first compound 0.00316 µM): 99.2%
- viability, T/C (second compound 0.316 µM, first compound 0.01 µM): 82.6%
- viability, T/C [13]: 87.4%
- viability, T/C [14]: 57%
- viability, T/C (second compound 1 µM, first compound 0.000316 µM): 132%
- viability, T/C (second compound 1 µM, first compound 0.001 µM): 117%
- viability, T/C (second compound 1 µM, first compound 0.00316 µM): 77.8%
- viability, T/C (second compound 1 µM, first compound 0.01 µM): 105%
- viability, T/C [19]: 86.7%
- viability, T/C [20]: 48%
- viability, T/C (second compound 3.16 µM, first compound 0.000316 µM): 110%
- viability, T/C (second compound 3.16 µM, first compound 0.001 µM): 110%
- viability, T/C (second compound 3.16 µM, first compound 0.00316 µM): 96.9%
- viability, T/C (second compound 3.16 µM, first compound 0.01 µM): 116%
- viability, T/C [25]: 84%
- viability, T/C [26]: 65.1%
- viability, T/C (second compound 10 µM, first compound 0.000316 µM): 163%
- viability, T/C (second compound 10 µM, first compound 0.001 µM): 117%
- viability, T/C (second compound 10 µM, first compound 0.00316 µM): 111%
- viability, T/C (second compound 10 µM, first compound 0.01 µM): 72.7%
- viability, T/C [31]: 103%
- viability, T/C [32]: 48.6%

SMILES: O=C(Nc1ccc(O)c(NS(=O)(=O)c2ccc(F)cc2)c1)c1ccc(-c2ccccc2)cc1 + Nc1ccc(C#CCN(C(=O)Cc2ncc(C(F)(F)F)cc2C(F)(F)F)c2ccc(F)cc2)nn1
- IC50 (second compound 0.0316 µM): > 10 µM
- IC50 (second compound 0.1 µM): > 10 µM
- IC50 (second compound 0.316 µM): > 10 µM
- IC50 (second compound 1 µM): > 10 µM
- IC50 (second compound 3.16 µM): > 10 µM
- IC50 (second compound 10 µM): 7.74 µM
- viability, T/C [1]: 107%
- viability, T/C [2]: 120%
- viability, T/C [3]: 108%
- viability, T/C [4]: 89.2%
- viability, T/C [5]: 81.7%
- viability, T/C [6]: 64.6%
- viability, T/C [7]: 91.9%
- viability, T/C [8]: 83.1%
- viability, T/C [9]: 91.3%
- viability, T/C [10]: 106%
- viability, T/C [11]: 104%
- viability, T/C [12]: 79%
- viability, T/C [13]: 112%
- viability, T/C [14]: 92.9%
- viability, T/C [15]: 96.8%
- viability, T/C [16]: 110%
- viability, T/C [17]: 112%
- viability, T/C [18]: 67.2%
- viability, T/C [19]: 83.1%
- viability, T/C [20]: 105%
- viability, T/C [21]: 114%
- viability, T/C [22]: 126%
- viability, T/C [23]: 112%
- viability, T/C [24]: 59.4%
- viability, T/C [25]: 91.8%
- viability, T/C [26]: 98%
- viability, T/C [27]: 111%
- viability, T/C [28]: 101%
- viability, T/C [29]: 116%
- viability, T/C [30]: 70.9%
- viability, T/C [31]: 127%
- viability, T/C [32]: 85.6%
- viability, T/C [33]: 101%
- viability, T/C [34]: 94.5%
- viability, T/C [35]: 99.5%
- viability, T/C [36]: 35.9%

SMILES: O=C(c1cc(Cc2n[nH]c(=O)c3ccccc23)ccc1F)N1CCN(C(=O)C2CC2)CC1 + Nc1ccc(C#CCN(C(=O)Cc2ncc(C(F)(F)F)cc2C(F)(F)F)c2ccc(F)cc2)nn1
- IC50 (second compound 0.0316 µM): > 10 µM
- IC50 (second compound 0.1 µM): > 10 µM
- IC50 (second compound 0.316 µM): > 10 µM
- IC50 (second compound 1 µM): > 10 µM
- IC50 (second compound 3.16 µM): > 10 µM
- IC50 (second compound 10 µM): > 10 µM
- viability, T/C [1]: 87.6%
- viability, T/C [2]: 89.3%
- viability, T/C [3]: 108%
- viability, T/C [4]: 89.5%
- viability, T/C [5]: 75.2%
- viability, T/C [6]: 76.3%
- viability, T/C [7]: 93.7%
- viability, T/C [8]: 81%
- viability, T/C [9]: 105%
- viability, T/C [10]: 73.1%
- viability, T/C [11]: 81%
- viability, T/C [12]: 60%
- viability, T/C [13]: 84.4%
- viability, T/C [14]: 85%
- viability, T/C [15]: 116%
- viability, T/C [16]: 69.3%
- viability, T/C [17]: 74.3%
- viability, T/C [18]: 53.3%
- viability, T/C [19]: 99.3%
- viability, T/C [20]: 99.8%
- viability, T/C [21]: 107%
- viability, T/C [22]: 98.6%
- viability, T/C [23]: 111%
- viability, T/C [24]: 78.7%
- viability, T/C [25]: 92%
- viability, T/C [26]: 93.5%
- viability, T/C [27]: 95%
- viability, T/C [28]: 94.8%
- viability, T/C [29]: 94.9%
- viability, T/C [30]: 69.2%
- viability, T/C [31]: 84.4%
- viability, T/C [32]: 94.9%
- viability, T/C [33]: 102%
- viability, T/C [34]: 98.2%
- viability, T/C [35]: 81%
- viability, T/C [36]: 85.9%
